Source: patent publication US10138255B2, “Piperazine derivatives as HIV protease inhibitors” (Merck Sharp & Dohme Corp., priority 2014, dated 2018)

Test system: HIV-1 (H9IIIB strain)
Experiment: Cell-Based HIV Infection Assay Using a Reporter (MT4-GFP cells)
Settings: Human immunodeficiency virus 1, inflection point (IP) of viral growth inhibition; MT4-GFP cells infected with HIV-1 H9IIIB; 50% normal human serum; mean of at least two independent experiments; read-out: Cell Based IP (50% NHS)
Outline: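 Inflection point from a 4-parameter curve of % viral growth inhibition, normalised to DMSO and triple-drug controls, using the 48 h/24 h ratio of GFP-positive cells (R0). MT4-GFP cells pre-infected 24 h with HIV-1 H9IIIB at low MOI; compounds tested in 50% normal human serum, 0.4% DMSO; mean of ≥2 experiments.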

Compound | EC50
C[C@@H]1CC([C@H](c2ccc(Cl)c(F)c2)[C@H](N)C(=O)Nc2cncc(F)c2CC[C@H]2CN[C@@H]3CCCS(=O)(=O)N2C3)C[C@H](C)O1 (stereo partly drawn) [Example 245, (2S,3R)-2-amino-3-(4-chloro-3-fluorophenyl)-3-((2R,6S)-2,6-dimethyltetrahydro-2H-pyran-4-yl)-N-(4-(2-((6R,9S)-2,2-dioxido-2-thia-1,7-diazabicyclo[4.3.1]decan-9-yl)ethyl)-5-fluoropyridin-3-yl)propanamide] | 5.8 nM
COC(=O)CCCN[C@H](C(=O)N[C@H]1CCC[C@@H]1CC[C@H]1CN[C@@H]2CCCS(=O)(=O)N1C2)[C@@H](c1ccc(Cl)cc1)C1CCOC(C)(C)C1 (stereo partly drawn) [Example 229, methyl 4-{[(1S,2R)-2-(4-chlorophenyl)-2-(2,2-dimethyltetrahydro-2H-pyran-4-yl)-1-{[(1S,2R)-2-{2-[(6R,9S)-2,2-dioxido-2-thia-1,7-diazabicyclo[4.3.1]dec-9-yl]ethyl}cyclopentyl]carbamoyl}ethyl]amino} butanoate] | 210 nM
COC(=O)N[C@H](C(=O)Nc1ccc(F)c(F)c1CC[C@H]1CN[C@@H]2CCCS(=O)(=O)N1C2)[C@@H](c1ccc(F)cc1)[C@H]1CC[C@H](OC)CC1 [Example 26, Methyl ((2S,3R)-1-((2-(2-((6R,9S)-2,2-dioxido-2-thia-1,7-diazabicyclo[4.3.1]decan-9-yl)ethyl)-3,4-difluorophenyl)amino)-3-(4-fluorophenyl)-3-((1r,4R)-4-methoxycyclohexyl)-1-oxopropan-2-yl)carbamate] | 11 nM
N[C@H](C(=O)Nc1cccc(F)c1CC[C@H]1CN[C@@H]2CCCS(=O)(=O)N1C2)C1(c2ccc(Cl)cc2)CCNCC1 [Example 185, (2S)-2-amino-2-[4-(4-chlorophenyl)piperidin-4-yl]-N-(2-{2-[(6R,9S)-2,2-dioxido-2-thia-1,7-diazabicyclo[4.3.1]dec-9-yl]ethyl}-3-fluorophenyl)ethanamide] | 3300 nM
COC(=O)N[C@H](C(=O)Nc1cccc(F)c1CCC1CNC2CCCS(=O)(=O)N1C2)[C@@H](c1ccc(Cl)cc1)C1CCOC(CC(F)(F)F)C1 (stereo partly drawn) [Example 172, methyl {(1S,2R)-2-(4-chlorophenyl)-1-({2-[2-(2,2-dioxido-2-thia-1,7-diazabicyclo[4.3.1]dec-9-yl)ethyl]-3-fluorophenyl}carbamoyl)-2-[2-(2,2,2-trifluoroethyl)tetrahydro-2H-pyran-4-yl]ethyl}carbamate] | 38 nM
N[C@H](C(=O)Nc1cccc(F)c1CCC1CNC2CCCS(=O)(=O)N1C2)[C@H](c1cncc(F)c1)c1ccc(Cl)c(F)c1 (stereo partly drawn) [Example 44, (βS)-4-chloro-N-{2-[2-(2,2-dioxido-2-thia-1,7-diazabicyclo[4.3.1]dec-9-yl)ethyl]-3-fluorophenyl}-3-fluoro-β-(5-fluoropyridin-3-yl)-L-phenylalaninamide] | 4.5 nM
C[C@@H]1CC([C@H](c2ccc(F)cc2)[C@H](N)C(=O)Nc2cc(F)ccc2CC[C@H]2CN[C@@H]3CCCS(=O)(=O)N2C3)C[C@H](C)O1 (stereo partly drawn) [Example 188, (βR)-β-[(2S,2R)-2,6-dimethyltetrahydro-2H-pyran-4-yl]-N-(2-{2-[(6R,9S)-2,2-dioxido-2-thia-1,7-diazabicyclo[4.3.1]dec-9-yl]ethyl}-5-fluorophenyl)-4-fluoro-L-phenylalaninamide] | 25 nM
CC1(C)CC([C@H](c2ccc(Cl)cc2)[C@H](NCCCC(F)(F)F)C(=O)N[C@H]2CCC[C@@H]2CC[C@H]2CN[C@@H]3CCCS(=O)(=O)N2C3)CCO1 (stereo partly drawn) [Example 184, (βR)-4-chloro-β-(2,2-dimethyltetrdhydro-2H-pyran-4-yl)-N-[(1S,2R)-2-{2-[(6R,9S)-2,2-dioxido-2-thia-1,7-diazabicyclo[4.3.1]dec-9-yl]ethyl}cyclopentyl]-Nα-(4,4,4-trifluorobutyl)-L-phenylalaninamide] | 330 nM
COC(=O)N[C@H](C(=O)N[C@H]1CCC[C@@H]1CC[C@H]1CN[C@@H]2CCCS(=O)(=O)N1C2)[C@@H](c1ccc(F)cc1)C1C[C@@H](C)O[C@@H](C)C1 (stereo partly drawn) [Example 108, methyl [(1S,2R)-2-[(2R,4s,6S)-2,6-dimethyltetrahydro-2H-pyran-4-yl]-1-{[(1S,2R)-2-{2-[(6R,9S)-2,2-dioxido-2-thia-1,7-diazabicyclo[4.3.1]dec-9-yl]ethyl}cyclopentyl]carbamoyl}-2-(4-fluorophenyl)ethyl]carbamate] | 50 nM
COC(=O)N[C@H](C(=O)Nc1cccc(F)c1CCC1CNC2CCCS(=O)(=O)N1C2)[C@H](c1ccnc(OC)c1)c1ccc(Cl)c(F)c1 (stereo partly drawn) [Example 69, methyl [(1S,2R)-2-(4-chloro-3-fluorophenyl)-1-({2-[2-(2,2-dioxido-2-thia-1,7-diazabicyclo[4.3.1]dec-9-yl)ethyl]-3-fluorophenyl}carbamoyl)-2-(2-methoxypyridin-4-yl)ethyl]carbamate] | 13 nM
COC(=O)N[C@H](C(=O)Nc1cccc(F)c1CCC1CNC2CCCS(=O)(=O)N1C2)[C@@H](c1ccc(Cl)cc1)C1CCC(F)(F)CC1 (stereo partly drawn) [Example 5, Methyl [(1S,2R)-2-(4-chlorophenyl)-2-(4,4-difluorocyclohexyl)-1-({2-[2-(2,2-dioxido-2-thia-1,7-diazabicyclo[4.3.1]dec-9-yl)ethyl]-3-fluorophenyl}carbamoyl)ethyl]carbamate] | 9.4 nM
COCCN[C@H](C(=O)N[C@H]1CCC[C@@H]1CC[C@H]1CN[C@@H]2CCCS(=O)(=O)N1C2)[C@@H](c1ccc(Cl)cc1)C1CCOC(C)(C)C1 (stereo partly drawn) [Example 182, (βR)-4-chloro-β-(2,2-dimethyltetrahydro-2H-pyran-4-yl)-N-[(1S,2R)-2-{2-[(6R,9S)-2,2-dioxido-2-thia-1,7-diazabicyclo[4.3.1]dec-9-yl]ethyl}cyclopentyl]-Nα-(2-methoxyethyl)-L-phenylalaninamide] | 70 nM
COC(=O)N[C@H](C(=O)Nc1cccc(F)c1CCC1CNC2CCCS(=O)(=O)N1C2)[C@@H](c1ccc(Cl)cc1)C1CC(F)(F)C1 (stereo partly drawn) [Example 4, Methyl [(1S,2R)-2-(4-chlorophenyl)-2-(3,3-difluorocyclobutyl)-1-({2-[2-(2,2-dioxido-2-thia-1,7-diazabicyclo[4.3.1]dec-9-yl)ethyl]-3-fluorophenyl}carbamoyl)ethyl]carbamate] | 13 nM
N[C@H](C(=O)Nc1cccc(F)c1CCC1CNC2CCCS(=O)(=O)N1C2)[C@@H](c1ccc(F)cc1)C12CC(C1)C2 (stereo partly drawn) [Example 86, (βR)-β-bicyclo[1.1.1]pent-1-yl-N-{2-[2-(2,2-dioxido-2-thia-1,7-diazabicyclo[4.3.1]dec-9-yl)ethyl]-3-fluorophenyl}-4-fluoro-L-phenylalaninamide] | 340 nM
COc1ccc([C@H](c2ccc(Cl)cc2)[C@H](N)C(=O)N[C@H]2CCC[C@@H]2CC[C@H]2CN[C@@H]3CCCS(=O)(=O)N2C3)cn1 [Example 80, (βS)-4-chloro-N-[(1S,2R)-2-{2-[(6R,9S)-2,2-dioxido-2-thia-1,7-diazabicyclo[4.3.1]dec-9-yl]ethyl}cyclopentyl]-β-(6-methoxypyridin-3-yl)-L-phenylalaninamide] | 71 nM
CCO[C@H]1CC[C@H]([C@H](c2ccc(F)cc2)[C@H](NC(=O)OC)C(=O)Nc2cccc(F)c2CC[C@H]2CN[C@@H]3CCCS(=O)(=O)N2C3)CC1 [Example 211, methyl {(1S)-2-[(2-{2-[(6R,9S)-2,2-dioxido-2-thia-1,7-diazabicyclo[4.3.1]dec-9-yl]ethyl}-3-fluorophenyl)amino]-1-[(R)-[(1r,4R)-4-ethoxycyclohexyl](4-fluorophenyl)methyl]-2-oxoethyl}carbamate] | 6.4 nM
COC(=O)N[C@H](C(=O)Nc1cccc(F)c1CCC1CNC2CCCS(=O)(=O)N1C2)[C@@H](c1ccc(Cl)cc1)c1ccnc(OC(C)C)c1 (stereo partly drawn) [Example 122, methyl {(1S,2S)-2-(4-chlorophenyl)-1-({2-[2-(2,2-dioxido-2-thia-1,7-diazabicyclo[4.3.1]dec-9-yl)ethyl]-3-fluorophenyl}carbamoyl)-2-[2-(1-methylethoxy)pyridin-4-yl]ethyl}carbamate] | 6.7 nM
COC(=O)N[C@H](C(=O)Nc1cccc(F)c1CC[C@H]1CN[C@@H]2CCCS(=O)(=O)N1C2)[C@@H](c1ccc(Cl)cc1)[C@H]1CC[C@H](OC2CC2)CC1 [Example 257, methyl {(1S,2R)-2-(4-chlorophenyl)-2-[(1r,4R)-4-(cyclopropyloxy)cyclohexyl]-1-[(2-{2-[(6R,9S)-2,2-dioxido-2-thia-1,7-diazabicyclo[4.3.1]dec-9-yl]ethyl}-3-fluorophenyl)carbamoyl]ethyl}carbamate] | 5.6 nM
N[C@H](C(=O)N[C@H]1CCC[C@@H]1CC[C@H]1CN[C@@H]2CCCS(=O)(=O)N1C2)[C@@H](c1ccc(Cl)cc1)C1CCS(=O)(=O)CC1 [Example 157, (βR)-4-chloro-β-(1,1-dioxidotetrahydro-2H-thiopyran-4-yl)-N-[(1S,2R)-2-{2-[(6R,9S)-2,2-dioxido-2-thia-1,7-diazabicyclo[4.3.1]dec-9-yl]ethyl}cyclopentyl]-L-phenylalaninamide] | 3400 nM
